The target of the assay is T1, LXRβ (Homo sapiens, UniProt P55055).
T1 construct: Co-transfection expression plasmids, comprising full-length LXRα (pCMX-h LXRα or LXRβ (pCMX-hLXRβ)); expressed in transfected cells; host or cells: CV-1 African green monkey kidney cells, transient transfection with pCMX-hLXRβ
T1 sequence (P55055 1-460): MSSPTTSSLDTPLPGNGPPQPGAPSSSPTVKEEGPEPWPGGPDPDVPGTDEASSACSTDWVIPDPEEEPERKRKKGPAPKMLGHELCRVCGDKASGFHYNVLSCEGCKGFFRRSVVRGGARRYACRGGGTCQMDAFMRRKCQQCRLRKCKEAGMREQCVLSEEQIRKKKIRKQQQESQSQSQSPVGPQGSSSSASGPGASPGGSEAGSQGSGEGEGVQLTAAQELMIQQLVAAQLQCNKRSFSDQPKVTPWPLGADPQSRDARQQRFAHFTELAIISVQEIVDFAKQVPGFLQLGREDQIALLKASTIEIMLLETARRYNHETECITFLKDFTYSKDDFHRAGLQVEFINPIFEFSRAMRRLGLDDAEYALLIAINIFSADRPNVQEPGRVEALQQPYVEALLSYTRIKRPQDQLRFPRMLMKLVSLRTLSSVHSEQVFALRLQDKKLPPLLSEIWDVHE
T1 sequence (P19793 1-462 partner): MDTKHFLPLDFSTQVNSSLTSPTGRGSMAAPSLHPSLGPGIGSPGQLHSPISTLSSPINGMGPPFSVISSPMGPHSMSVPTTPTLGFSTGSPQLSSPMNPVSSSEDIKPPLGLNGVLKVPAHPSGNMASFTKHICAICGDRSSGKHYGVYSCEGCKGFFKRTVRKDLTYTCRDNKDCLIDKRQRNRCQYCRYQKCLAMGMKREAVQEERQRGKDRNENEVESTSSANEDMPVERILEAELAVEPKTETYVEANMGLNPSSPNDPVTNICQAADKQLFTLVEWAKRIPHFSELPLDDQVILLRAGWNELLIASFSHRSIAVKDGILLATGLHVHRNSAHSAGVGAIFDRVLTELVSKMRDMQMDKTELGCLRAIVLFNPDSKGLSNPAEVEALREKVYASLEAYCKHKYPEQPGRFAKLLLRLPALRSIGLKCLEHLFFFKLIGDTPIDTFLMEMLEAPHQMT
Briefly: LXR/LXRE co-transfection assay (luciferase reporter) in CV-1 cells, LXRβ. Particulars: for EC50: CV-1 cells transfected with pCMX-hLXRβ and LXREx1-Tk-Luciferase, 20 hours incubation, read-out: LXRbeta agonism EC50; for Emax: read-out: LXRbeta % EFFICACY
Format: cell-based. An excerpt:
To measure the ability of compounds to activate or inhibit the transcriptional activity of LXR in a cell based assay, the co-transfection assay was used. It has been shown that LXR functions as a heterodimer with RXR. For the co-transfection assay, expression plasmids for LXRα and LXRβ are introduced separately via transient transfection into mammalian cells along with a luciferase reporter plasmid that contains one copy of a DNA sequence that is bound by LXR-RXR heterodimers (LXRE; Willy, P. et. al. 1995). LXRs heterodimerize with the endogenous RXR. Treatment of transfected cells with an LXR agonist increases the transcriptional activity of LXR, which is measured by an increase in luciferase activity.
Co-transfection expression plasmids, comprising full-length LXRα (pCMX-h LXRα or LXRβ (pCMX-hLXRβ), reporter plasmid (LXREx1-Tk-Luciferase), and control (pCMX-Galactosidase expression vector) (Willey et al. Genes & Development 9 1033-1045 (1995)).
CV-1 cells were prepared 24 hours prior to the experiment by plating them into T-175 flasks or 500 cm^2 dishes in order to achieve 70-80% confluency on the day of the transfection. The number of cells to be transfected was determined by the number of plates to be screened. Each well of a 384 well plate requires 1.5×10^4 cells. DNA Transfection Reagent was prepared by mixing the required plasmid DNAs with a cationic lipid transfection reagent Transit 2020 (Mirus Bio) for CV1 by following the instructions provided with the reagents. Optimal DNA amounts were determined empirically per cell line and size of vessel to be transfected. For each T175 cm^2 flask a total of 44.4 ug for CV1 of DNA, 133 ul Transit2020 and 4.5 ml DMEM for CV1 was mixed and added. Cells were then incubated at least 5 hours at 37° C. to prepare screening cells.
Assay plates were prepared by dispensing 5 μL of compound per well of a 384 well plate to achieve final compound concentration of 10 μM and no more than 0.5% DMSO. Media was removed from the screening cells, the cells trypsinized, harvested cells by centrifugation, counted, and plated at a density of approximately 1.5×10^4 cells in the 384 well assay plate prepared above in a volume of about 95 uL. Assay plates containing both compounds and screening cells (100 μL in total volume) were incubated for 20 hours at 37° C.
After incubation with compounds, media was removed from the cells and luciferase assay reagent (30 μL/well) added. After ˜2 minutes at ambient temperature, the assay plates were read on a luminometer (PE Biosystems Northstar reader with on-board injectors, or Envision (Perkin Elmer) or equivalent).
The LXR/LXRE co-transfection assay can be used to establish the EC50/IC50 values for potency and percent activity or inhibition for efficacy. Efficacy defines the activity of a compound relative to a high control ((N-(3-((4-fluorophenyl)-(naphthalene-2-sulfonyl)amino)propyl)-2,2-dimethylpropionamide)) or a low control (DMSO/vehicle). The dose response curves are generated from a 10 point curve with concentrations differing by ½ LOG units. Each point represents the average of 4 wells of data from a 384 well plate.
The data from this assay is fitted to the following equation, from which the EC50 value may be solved: Y=Bottom+(Top−Bottom)/(1+10^((log EC50-X)*HillSlope)).
The EC50/IC50 is therefore defined as the concentration at which an agonist or antagonist elicits a response that is halfway between the Top (maximum) and Bottom (baseline) values. The EC50/IC50 values represented are the averages of at least 2 and normally 3 independent experiments. The determination of the relative efficacy or % control for an agonist is by comparison to the maximum response achieved by ((N-(3-((4-fluorophenyl)-(naphthalene-2-sulfonyl)-amino)propyl)-2,2-dimethylpropionamide) that is measured individually in each dose response experiment.
Table 1 lists LXRβ EC50 values and % efficacy measurements in the cotransfection assay for examples of this invention.
On the technique in general: In a reporter assay the amount or activity of a reporter protein is the signal.

The mark [1] stands for this setting: CV-1 cells, relative to maximum response of high control N-(3-((4-fluorophenyl)-(naphthalene-2-sulfonyl)amino)propyl)-2,2-dimethylpropionamide.

These results are taken from US9751869B2, “LXR modulators” (BRISTOL-MYERS SQUIBB COMPANY, priority 2013, dated 2017).

Usually EC50 stands for the concentration giving half of the maximal effect. For `Cc1nc(-c2ccc(OC(F)(F)F)cc2)c(-c2cc(-c3cccc(S(C)(=O)=O)c3)ccc2-n2ccc(C(C)O)n2)o1` (single isomer, unassigned) [Example 367, 1-(1-(3-(2-methyl-4-(4-(trifluoromethoxy)phenyl)oxazol-5-yl)-3′-(methylsulfonyl)-[1,1′-biphenyl]-4-yl)-1H-pyrazol-3-yl)ethanol], the EC50 is 264 nM. Further, the Emax under setting [1] turned out to be 55%.

As to `Cc1nc(-c2ccc(OC(F)(F)F)cc2)c(-c2cc(-c3cccc(S(C)(=O)=O)c3)ccc2-n2ccc(C(C)O)n2)o1` (single isomer, unassigned) [Example 368, 1-(1-(3-(2-methyl-4-(4-(trifluoromethoxy)phenyl)oxazol-5-yl)-3′-(methylsulfonyl)-[1,1′-biphenyl]-4-yl)-1H-pyrazol-3-yl)ethanol], the concentration for a half-maximal effect (EC50) was 890 nM. For the same molecule, the “LXRbeta % EFFICACY” value under setting [1] came out at 50%.

Take `CC(O)C(F)(F)c1cc(-c2ccc(-c3cccc(S(C)(=O)=O)c3)cc2-n2nncc2-c2ccc(OC(F)(F)F)cc2)n(C)n1` (stereo not drawn) [Example 1, 1,1-difluoro-1-(1-methyl-5-(3′-(methylsulfonyl)-3-(5-(4-(trifluoromethoxy)phenyl)-1H-1,2,3-triazol-1-yl)biphenyl-4-yl)-1H-pyrazol-3-yl)propan-2-ol]: the concentration giving a half-maximal response (EC50) was determined as 783 nM. In addition, under setting [1], the Emax amounted to 68%.

For the molecule `CCC(F)(F)c1cc(-c2ccc(-c3cc(F)c(CO)c(S(C)(=O)=O)c3)cc2-n2nncc2-c2ccc(OC(F)(F)F)cc2)n(C)n1` [Example 2, (4′-(3-(1,1-difluoropropyl)-1-methyl-1H-pyrazol-5-yl)-3-fluoro-5-(methylsulfonyl)-3′-(5-(4-(trifluoromethoxy)phenyl)-1H-1,2,3-triazol-1-yl)biphenyl-4-yl)methanol], the half-maximal effective concentration (EC50) stood at 26 nM. The Emax under setting [1] was determined as 89%.

For the molecule `Cn1nc(C(F)(F)C(C)(C)O)cc1-c1ccc(-c2cc(F)c(CO)c(S(C)(=O)=O)c2)cc1-n1nncc1-c1ccc(OC(F)(F)F)cc1` [Example 3, 1,1-difluoro-1-(5-(3′-fluoro-4′-(hydroxymethyl)-5′-(methylsulfonyl)-3-(5-(4-(trifluoromethoxy)phenyl)-1H-1,2,3-triazol-1-yl)biphenyl-4-yl)-1-methyl-1H-pyrazol-3-yl)-2-methylpropan-2-ol], the concentration for a half-maximal effect (EC50) was 245 nM. The Emax under setting [1] was found to be 73%.

In the case of `Cn1nc(C(F)(F)C(N)=O)cc1-c1ccc(-c2cccc(S(C)(=O)=O)c2)cc1-n1nncc1-c1ccc(OC(F)(F)F)cc1` [Example 4, 2,2-difluoro-2-(1-methyl-5-(3′-(methylsulfonyl)-3-(5-(4-(trifluoromethoxy)phenyl)-1H-1,2,3-triazol-1-yl)biphenyl-4-yl)-1H-pyrazol-3-yl)acetamide], the EC50 was 1580 nM. Under setting [1], the Emax is 82%.

Regarding `Cc1c(C(C)(F)F)nn(C)c1-c1ccc(-c2cc(F)c(CO)c(S(C)(=O)=O)c2)cc1-n1nncc1-c1ccc(OC(F)(F)F)cc1` [Example 5], the EC50 was 12 nM. Under setting [1], the Emax is 109%.

Regarding `CC(O)C(F)(F)c1cc(-c2ccc(-c3cc(F)c(CO)c(S(C)(=O)=O)c3)cc2-n2nncc2-c2ccc(OC(F)(F)F)cc2)n(C)n1` (stereo not drawn) [Example 6, 1,1-difluoro-1-(5-(3′-fluoro-4′-(hydroxymethyl)-5′-(methylsulfonyl)-3-(5-(4-(trifluoromethoxy)phenyl)-1H-1,2,3-triazol-1-yl)biphenyl-4-yl)-1-methyl-1H-pyrazol-3-yl)propan-2-ol], the EC50 was found to be 252 nM. Moreover, the Emax under setting [1] was 84%.

In the case of `Cn1nc(C(F)(F)C(C)(C)O)cc1-c1ccc(-c2cccc(S(C)(=O)=O)c2)cc1-n1nncc1-c1ccc(OC(F)(F)F)cc1` [Example 7, 1,1-difluoro-2-methyl-1-(1-methyl-5-(3′-(methylsulfonyl)-3-(5-(4-(trifluoromethoxy)phenyl)-1H-1,2,3-triazol-1-yl)biphenyl-4-yl)-1H-pyrazol-3-yl)propan-2-ol], the 50% effective concentration (EC50) is 377 nM. Besides, the Emax under setting [1] was 66%.
